Reference: article PMC11748620, “Evaluation of maSSS/maSES-PEG2-RM26 for their potential therapeutic use after labeling with Re-188. Could their [^99mTc]Tc-labeled counterparts be used to estimate dosimetry?” (EJNMMI Radiopharmacy and Chemistry, 2025)

Test system: PC-3 xenografts
Assay: Ex vivo biodistribution in PC-3 xenograft bearing mice
Design: species or system BALB/C nu/nu mice
Conditions: mice bearing PC-3 xenografts, 4 h pi
Description: Animal studies were in compliance with the European guidelines for laboratory animal protection. BALB/C nu/nu mice were used and the experimental protocols were approved by the ethics committee for animal research in Uppsala (Sweden); permit number 00473/21.
The biodistribution profiles and tumor targeting of maSSS-/SES-PEG2-RM26, labeled with Re-188 or Tc-99 m, were compared head-to-head in the same batch of animals, inoculated with the same PC-3 cells-suspension. After acclimatization, animals were inoculated subcutaneously (right hind leg) with 7 × 10^6 freshly harvested PC-3 cells per animal, in PBS. After approximately four weeks solid tumors were present at the inoculation sites and the animals were randomly divided in groups of four.
For the ex vivo biodistribution experiments animals were injected via the tail vein with 50 pmol (120 kBq for Re-188 and 60 kBq for Tc-99 m) of the radiopeptide under evaluation, in 100 µl solution in PBS supplemented with 1% w/v BSA. Animals were euthanized at 1 h and 4 h post injection (pi) and tissues / organs of interest and tumors were collected, weighted and their radioactivity content was measured on a gamma counter. Each group comprised by four animals (n = 4).
Statistical analysis was performed using GraphPad Prism, employing a two-way ANOVA test with Tuckey’s posthoc analysis.

Row | SMILES | ratio of activity uptake in caecum, Re-188 over Tc-99 m [fold]
1 | CC(C)C[C@H](NC(=O)C[C@H](O)[C@H](CC(C)C)NC(=O)[C@H](Cc1c[nH]cn1)NC(=O)CNC(=O)[C@@H](NC(=O)[C@H](C)NC(=O)[C@H](Cc1c[nH]c2ccccc12)NC(=O)[C@H](CCC(N)=O)NC(=O)[C@@H](Cc1ccccc1)NC(=O)COCCOCCNC(=O)[C@H](CO)NC(=O)[C@H](CCC(=O)O)NC(=O)[C@H](CO)NC(=O)CS)C(C)C)C(N)=O [maSES-PEG2-RM26, mercaptoacetyl-Ser-Glu-Ser-PEG2-RM26] | 2.3
2 | CC(C)C[C@H](NC(=O)C[C@H](O)[C@H](CC(C)C)NC(=O)[C@H](Cc1c[nH]cn1)NC(=O)CNC(=O)[C@@H](NC(=O)[C@H](C)NC(=O)[C@H](Cc1c[nH]c2ccccc12)NC(=O)[C@H](CCC(N)=O)NC(=O)[C@@H](Cc1ccccc1)NC(=O)COCCOCCNC(=O)[C@H](CO)NC(=O)[C@H](CO)NC(=O)[C@H](CO)NC(=O)CS)C(C)C)C(N)=O [maSSS-PEG2-RM26, mercaptoacetyl-Ser-Ser-Ser-PEG2-RM26] | 1.4
